Our source for the IC50 values is patent US20260193268A1, “TRICYCLIC PI3Ka INHIBITOR, PREPARATION METHOD THEREFOR, AND PHARMACEUTICAL USE THEREOF” (WIGEN BIOMEDICINE TECHNOLOGY (SHANGHAI) CO., LTD., priority 2022, published 2026).

The subject of assay [1] is HCC1954 cells (with PI3Kα H1047R mutation). Nature of the assay: In vitro inhibition of HCC1954 cell proliferation (CellTiter-Lumi). In kind it is cell-based. The note with it: Homo sapiens, HCC1954, 144 h, HCC1954 cells, 144 h, CellTiter-Lumi. As to the method:
Assay for In Vitro Inhibition of HCC1954 Cell Proliferation by Compounds of the Present Disclosure
The growth of the cells was evaluated, and the IC50 for the inhibition of cell growth by the compounds was calculated.

Assay [2] concerns MCF-7 cells (with PI3Kα E545K mutation). Put plainly: In vitro inhibition of MCF-7 cell proliferation (CellTiter-Lumi). The note with it: Homo sapiens, MCF7, 144 h. In kind it is cell-based. The procedure, abridged: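 Growth IC50 derived from ATP luminescence (CellTiter-Lumi) after 144 h exposure of MCF-7 cells carrying PI3Kα E545K, plated 2000 cells/well and dosed with serial dilutions one day after seeding.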

Where [3] appears, read: class symbols, read-out: Inhibitory activity against HCC1954 cells (IC50), class symbols.
The mark [4] stands for this setting: class symbols, read-out: Inhibitory activity against MCF-7 cells (IC50), class symbols.
[5] abbreviates: numeric values, read-out: Inhibitory activity against HCC1954 cells (IC50).
Setting [6] is: numeric values, read-out: Inhibitory activity against MCF-7 cells (IC50).

Each structure is given as a SMILES string. Where two headings read alike, the source gives them in different places.

One may read the IC50 as the concentration at which inhibition is half-maximal. `N#CC(=CC1CCCN1)C(=O)Nc1ccc(N2CC(N3CCN(c4ccc5c(c4)-c4nc(N6C(=O)OC[C@H]6C(F)F)cn4CCO5)CC3)C2)nc1` (some centres unmarked) [Compound 252]: the IC50 in assay [1] (setting [3]) and in assay [2] (setting [4]) was less than 50 nM each time.
In the case of `C=CC(=O)N1CCC(CCN2CC3(C2)CN(c2ccc4c(c2)-c2nc(N5C(=O)OC[C@H]5C(F)F)cn2CCO4)C3)CC1` [Compound 19], the IC50 was more than 1000 nM in assay [1] (setting [5]) and 217 nM in assay [2] (setting [6]).
For the molecule `CC(C)(N)C=C(C#N)C(=O)Nc1cnc(N2CC(N3CCN(c4ccc5c(c4)-c4nc(N6C(=O)OC[C@H]6C(F)F)cn4CCO5)CC3)C2)nc1` [Compound 260], the IC50 in assay [1] (setting [3]) and in assay [2] (setting [4]) was less than 50 nM in each case.
`CC(C)(C=C(C#N)C(=O)Nc1ccc(N2CC(N3CCN(c4ccc5c(c4)-c4nc(N6C(=O)OC[C@H]6C(F)F)cn4CCO5)CC3)C2)c(Cl)c1)NC1COC1` [Compound 353]: the IC50 in assay [1] (setting [3]) and in assay [2] (setting [4]) was less than 50 nM each time.
Take `C=CC(=O)Nc1ccc(C2CN(C3CCN(c4ccc5c(c4)-c4nc(N6C(=O)OC[C@H]6C(F)F)cn4CCO5)CC3)C2)cc1` [Compound 160]: the IC50 turned out to be 47 nM in assay [1] (setting [5]) and 3.5 nM in assay [2] (setting [6]).
Regarding `CC(C)(C=C(C#N)C(=O)Nc1cnc(N2CC(N3CCN(c4ccc5c(c4)-c4nc(N6C(=O)OC[C@H]6C(F)F)cn4CCO5)CC3)C2)nc1)N1CCC1` [Compound 265], the IC50 in assay [1] (setting [3]) and in assay [2] (setting [4]) was less than 50 nM each time.
As to `Cc1nc(-c2cn3c(n2)-c2cc(N4CCN(C5CN(c6ccc(NC(=O)C(C#N)=CC(C)(C)C)c(Cl)c6)C5)CC4)ccc2OCC3)n(C(C)C)n1` [Compound 370], the concentration for half-maximal inhibition (IC50) in assay [1] (setting [3]) and in assay [2] (setting [4]) was less than 50 nM throughout.
Consider `CC1CC1C=C(C#N)C(=O)Nc1ccc(N2CC(N3CCN(c4ccc5c(c4)-c4nc(N6C(=O)OC[C@H]6C(F)F)cn4CCO5)CC3)C2)cc1` (some centres unmarked) [Compound 284], for which the IC50 in assay [1] (setting [3]) and in assay [2] (setting [4]) was less than 50 nM in each case.
Take `C=CC(=O)N1CCC(N2CCC(N3CCN(c4ccc5c(c4)-c4nc(N6C(=O)OC[C@H]6C(F)F)cn4CCO5)CC3)C2)CC1` (some centres unmarked) [Compound 89]: the IC50 came out at 230 nM in assay [1] (setting [5]) and 41 nM in assay [2] (setting [6]).
For `NC/C=C/C(=O)Nc1ccc(N2CC(N3CCN(c4ccc5c(c4)-c4nc(N6C(=O)OC[C@H]6C(F)F)cn4CCO5)CC3)C2)cc1` [Compound 170], in that order: 77 nM and 17 nM.
For `C=CC(=O)Nc1ccc(N2CC(N3CCN(c4ccc5c(c4)-c4nc(N6C(=O)OC[C@H]6CF)cn4CCO5)CC3)C2)cc1` [Compound 176], in that order: 4.9 nM and 0.2 nM.
For `CC(=O)NC(C)(C)C=C(C#N)C(=O)Nc1ccc(N2CC(N3CCN(c4ccc5c(c4)-c4nc(-c6nc(C)nn6C(C)C)cn4CCO5)CC3)C2)cc1` [Compound 375], the IC50 in assay [1] (setting [3]) and in assay [2] (setting [4]) was less than 50 nM throughout.
As to `C=CC(=O)N1CC(N2CCC(CN3CC=C(c4ccc5c(c4)-c4nc(N6C(=O)OC[C@H]6C(F)F)cn4CCO5)CC3)CC2)C1` [Compound 88], the IC50 stood at 212 nM in assay [1] (setting [5]) and 32 nM in assay [2] (setting [6]).
For `C#CC(=O)Nc1ccc(N2CC(N3CCN(c4ccc5c(c4)-c4nc(N6C(=O)OC[C@H]6C(F)F)cn4CCO5)CC3)C2)cc1` [Compound 152], in that order: 49 nM and 9.7 nM.
Turning to `CN1CCN(C(C)(C)C=C(C#N)C(=O)Nc2ccc(N3CC(N4CCN(c5ccc6c(c5)-c5nc(N7C(=O)OC[C@H]7C(F)F)cn5CCO6)CC4)C3)cc2)CC1=O` [Compound 308], the IC50 in assay [1] (setting [3]) and in assay [2] (setting [4]) was less than 50 nM throughout.
With `CN(C)C/C=C/C(=O)Nc1ccc(N2CC(N3CCN(c4ccc5c(c4)-c4nc(N6C(=O)OC[C@H]6C(F)F)cn4CCO5)CC3)C2)nc1` [Compound 285], the IC50 in assay [1] (setting [3]) and in assay [2] (setting [4]) was less than 50 nM in each case.
With `C=CC(=O)Nc1ccc(N2CC(N3CCC(c4ccc5c(c4)-c4nc(N6C(=O)OC[C@H]6C(F)F)cn4CCO5)CC3)C2)cc1` [Compound 104], the IC50 stood at 65 nM in assay [1] (setting [5]) and 4.6 nM in assay [2] (setting [6]).
`CC(C)(C=C(C#N)C(=O)Nc1ccc(N2CC(N3CCN(c4ccc5c(c4)-c4nc(N6C(=O)OC[C@H]6C(F)F)cn4CCO5)CC3)C2)cc1)NCC1CCO1` (some centres unmarked) [Compound 382]: the IC50 in assay [1] (setting [3]) and in assay [2] (setting [4]) was less than 50 nM in each case.
Regarding `CNC(C)(C)C=C(C#N)C(=O)Nc1ccc(N2CC(N3CCN(c4ccc5c(c4)-c4nc(N6C(=O)OC[C@H]6C(F)F)cn4CCO5)CC3)C2)c(Cl)c1` [Compound 350], the IC50 in assay [1] (setting [3]) and in assay [2] (setting [4]) was less than 50 nM each time.
`CNC1(C=C(C#N)C(=O)Nc2ccc(N3CC(N4CCN(c5ccc6c(c5)-c5nc(N7C(=O)OC[C@H]7C(F)F)cn5CCO6)CC4)C3)nc2)CC1` [Compound 255]: the IC50 in assay [1] (setting [3]) and in assay [2] (setting [4]) was less than 50 nM throughout.
Consider `COC(C)(C)C=C(C#N)C(=O)Nc1ccc(N2CC(N3CCN(c4ccc5c(c4)-c4nc(N6C(=O)OC[C@H]6C(F)F)cn4CCO5)CC3)C2)c(F)c1` [Compound 231], for which the IC50 in assay [1] (setting [3]) and in assay [2] (setting [4]) was less than 50 nM in each case.
Turning to `CC(C)(C=C(C#N)C(=O)Nc1ccc(N2CC(N3CCN(c4ccc5c(c4)-c4nc(N6C(=O)OC[C@H]6C(F)F)cn4CCO5)CC3)C2)cc1Cl)NC1COC1` [Compound 362], the IC50 in assay [1] (setting [3]) and in assay [2] (setting [4]) was less than 50 nM in each case.
Consider `CC(C)(N)C=C(C#N)C(=O)Nc1ncc(N2CC(N3CCN(c4ccc5c(c4)-c4nc(N6C(=O)OC[C@H]6C(F)F)cn4CCO5)CC3)C2)cn1` [Compound 294], for which the IC50 in assay [1] (setting [3]) and in assay [2] (setting [4]) was less than 50 nM throughout.
As to `C=CC(=O)Nc1ccc(N2CC(N3CCN(c4ccc5c(c4)-c4nc(N6C(=O)OC[C@H]6C(F)F)cn4CCO5)CC3)C2)cc1C#N` [Compound 143], the IC50 in assay [1] (setting [5]) turned out to be 2.2 nM; in assay [2] (setting [6]), 0.1 nM.
For `CC(C)(N)C=C(C#N)C(=O)Nc1ccc(N2CC(N3CCN(c4ccc5c(c4)-c4nc(N6C(=O)OC[C@H]6C(F)F)cn4CCO5)CC3)C2)nc1` [Compound 242], the IC50 in assay [1] (setting [3]) and in assay [2] (setting [4]) was less than 50 nM throughout.
For `COCCNC(C)(C)C=C(C#N)C(=O)Nc1ccc(N2CC(N3CCN(c4ccc5c(c4)-c4nc(N6C(=O)OC[C@H]6C(F)F)cn4CCO5)CC3)C2)nn1` [Compound 303], the IC50 in assay [1] (setting [3]) and in assay [2] (setting [4]) was less than 50 nM throughout.
For the molecule `CC(C)(C)C=C(C#N)C(=O)Nc1ccc(N2CC(N3CCN(c4ccc5c(c4)-c4nc(N6C(=O)OC[C@H]6C(F)F)cn4CCO5)CC3)C2)nc1` [Compound 241], the IC50 in assay [1] (setting [3]) and in assay [2] (setting [4]) was less than 50 nM each time.
For `CC(C)(C=C(C#N)C(=O)Nc1ccc(N2CC(N3CCN(c4ccc5c(c4)-c4nc(N6C(=O)OC[C@H]6C(F)F)cn4CCO5)CC3)C2)cc1)NCCO` [Compound 383], the IC50 in assay [1] (setting [3]) and in assay [2] (setting [4]) was less than 50 nM each time.
Take `CC(C)(C=C(C#N)C(=O)Nc1ccc(N2CC(N3CCN(c4ccc5c(c4)-c4nc(N6C(=O)OC[C@H]6C(F)F)cn4CCO5)CC3)C2)nn1)NC1COC1` [Compound 296]: the IC50 in assay [1] (setting [3]) and in assay [2] (setting [4]) was less than 50 nM each time.
`CN(C1COC1)C(C)(C)C=C(C#N)C(=O)Nc1ccc(N2CC(N3CCN(c4ccc5c(c4)-c4nc(N6C(=O)OC[C@H]6C(F)F)cn4CCO5)CC3)C2)cc1` [Compound 274]: the IC50 in assay [1] (setting [3]) and in assay [2] (setting [4]) was less than 50 nM throughout.
As for `C=CC(=O)N1CC(N2CCC(c3ccc(-c4ccc5c(c4)-c4nc(N6C(=O)OC[C@H]6C(F)F)cn4CCO5)cc3)CC2)C1` [Compound 197], the figures for the IC50 in assay [1] (setting [3]) and in assay [2] (setting [4]) were 100 to 1000 nM and less than 50 nM, respectively.
